According to patent US11524966B1 (Valo Early Discovery, Inc., priority 2017, dated 2022):

Target: T1, USP28 (USP28-5(1-1077)-TEV-6*His; LifeSensors) (Homo sapiens, UniProt Q96RU2)
T1 construct: construct USP28 (USP28-5(1-1077)-TEV-6*His; LifeSensors); TEV cleavage site (C); 6xHis (C); purchased LifeSensors
T1 sequence (Q96RU2 1-1077): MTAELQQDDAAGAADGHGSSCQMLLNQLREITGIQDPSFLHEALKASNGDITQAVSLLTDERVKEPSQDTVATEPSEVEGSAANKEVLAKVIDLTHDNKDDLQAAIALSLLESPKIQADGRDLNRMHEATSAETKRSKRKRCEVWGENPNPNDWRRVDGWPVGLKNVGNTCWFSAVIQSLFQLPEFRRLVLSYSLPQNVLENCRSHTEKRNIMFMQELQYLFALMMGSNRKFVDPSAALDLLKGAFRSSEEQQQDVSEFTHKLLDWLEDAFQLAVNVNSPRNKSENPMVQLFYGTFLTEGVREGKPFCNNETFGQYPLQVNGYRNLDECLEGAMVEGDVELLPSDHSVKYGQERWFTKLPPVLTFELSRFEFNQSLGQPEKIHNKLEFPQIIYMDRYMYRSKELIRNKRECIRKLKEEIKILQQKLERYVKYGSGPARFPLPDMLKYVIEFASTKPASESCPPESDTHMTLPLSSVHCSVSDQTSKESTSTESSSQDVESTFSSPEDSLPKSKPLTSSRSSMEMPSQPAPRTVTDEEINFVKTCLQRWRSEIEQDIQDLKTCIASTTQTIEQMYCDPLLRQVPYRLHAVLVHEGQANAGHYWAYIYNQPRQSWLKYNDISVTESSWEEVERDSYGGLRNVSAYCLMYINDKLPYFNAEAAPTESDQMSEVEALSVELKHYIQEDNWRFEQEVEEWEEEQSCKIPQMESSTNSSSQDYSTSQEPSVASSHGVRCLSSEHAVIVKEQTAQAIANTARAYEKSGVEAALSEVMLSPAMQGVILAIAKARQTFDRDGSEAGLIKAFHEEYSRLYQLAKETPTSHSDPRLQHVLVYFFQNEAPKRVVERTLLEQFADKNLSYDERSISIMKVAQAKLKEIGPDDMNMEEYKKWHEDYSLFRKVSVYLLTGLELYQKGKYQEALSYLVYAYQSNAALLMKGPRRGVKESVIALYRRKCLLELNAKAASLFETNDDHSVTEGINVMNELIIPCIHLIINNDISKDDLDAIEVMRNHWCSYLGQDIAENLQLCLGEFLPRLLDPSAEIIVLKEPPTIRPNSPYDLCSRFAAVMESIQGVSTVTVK
Assay: Ubiquitin-Rhodamine 110 Assay for USP28 Activity, Example A-1(b)
Type: biochemical
Conditions: Ubiquitin-Rhodamine 110 assay, Example A-1(b)
How it was run: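 Single-point screening used 10 μM compound with 90 min room-temperature incubation; follow-up dose-responses (25 μM top, 3-fold) used 75 pM USP28 1-1077 construct, 30 min compound preincubation, 25 nM Ub-Rh110, 20 min reaction, citric acid quench. Rh110 fluorescence normalised to no-enzyme and DMSO controls; IC50 from 4-parameter logistic fit.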

Structure (SMILES) | USP28 A-1(b) IC50 range
Cc1ccc2c(N)c(C(=O)N[C@H]3COc4cc(N5C[C@@H](N)[C@@H](F)C5)ccc4C3)sc2n1 (single isomer, unassigned) [Example 3-5] | +++ (0.05-0.2 μM)
Cc1ccc2c(N)c(C(=O)N[C@H]3COc4cc(N5C[C@@H](F)[C@@H](N)C5)ccc4C3)sc2n1 (single isomer, unassigned) [Example 3-6] | ++ (0.2-2 μM)
